Assay type in all cases: biochemical
The target of one assay is T1, rat liver complex II (Rattus norvegicus, UniProt P21913+Q641Z9+Q6PCT8).
T1 construct: from tissue; host or cells: rat liver mitochondria
Put plainly: Inhibition of succinate dehydrogenase activity of rat liver complex II (DCIP reduction). As to the method:
(§1) With regard to the complex II of the rat liver, mitochondria prepared according to the same method described in the referential example 1 was used. Succinate dehydrogenase activity of the complex II was measured by changes of maximum absorption, which was specific to the electron acceptor (DCIP), from oxidized form of DCIP to reduced form with the addition of succinate. Namely, ubiquinone-2 and DCIP were added to the level of 100 ìM and 70 ìM, respectively, into 50 mM phosphate buffer (pH 7.5); atpenin A4 was added therein; further the complex II was added thereto; then potassium succinate with final concentration of 10 mM was added; and the reaction was started at 25° C. Reaction rate was measured by that the formation rate of reduced form of DCIP (amM^−1 1 cm^−1: 21) which accepted electron from succinate was measured at absorption changes of 600 nm. Activity was indicated by molar numbers of DCIP reduced per minute. Potassium cyanide, final concentration of 10 mM, was added due to necessity for prevention of leakage of reduction activity by inhibiting terminal oxidase.
(§2) With regard to the complex II of the rat liver, mitochondria prepared according to the same method described in the referential example 1 was used. Succinate dehydrogenase activity of the complex II was measured by changes of maximum absorption, which was specific to the electron acceptor (DCIP), from oxidized form of DCIP to reduced form with the addition of succinate. […] Reaction rate was measured by that the formation rate of reduced form of DCIP (amM^−1 1 cm^−1: 21) which accepted electron from succinate was measured at absorption changes of 600 nm. […]
as §2
With regard to the complex II of the rat liver, mitochondria prepared according to the same method described in the referential example 1 was used. Succinate dehydrogenase activity of the complex II was measured by changes of maximum absorption, which was specific to the electron acceptor (DCIP), from oxidized form of DCIP to reduced form with the addition of succinate. […]

For assay [1], the target named is T2, bovine heart complex II (succinate-ubiquinone oxidoreductase) (Bos taurus, UniProt P35720+Q3T189+Q95123).
T2 construct: of the bovine heart, mitochondria prepared according to the method of S. Takamiya et al; from tissue; host or cells: bovine heart mitochondria
Put plainly: Inhibition of succinate dehydrogenase activity of bovine heart complex II (DCIP reduction).
Protocol: With regard to the complex II (succinate-ubiquinone oxidoreductase) of the bovine heart, mitochondria prepared according to the method of S. Takamiya et al. (Developmental changes in the respiratory chain of Ascaris mitochondria, Biochim. Biophys. Acta, 1141, 65-71, 1993) were used. Succinate dehydrogenase activity of the complex II was measured by changes of maximum absorption, which was specific to the electron acceptor (DCIP), from oxidized form of 2,6-dichlorophenolindophenol (DCIP, Sigma Inc.) to reduced form with the addition of succinate.
With regard to the complex II of the bovine heart, mitochondria prepared according to the same method described in the referential example 1 was used. Succinate dehydrogenase activity of the complex II was measured by changes of maximum absorption, which was specific to the electron acceptor (DCIP), from oxidized form of DCIP to reduced form with the addition of succinate. […] Reaction rate was measured by that the formation rate of reduced form of DCIP (amM^−1 1 cm^−1: 21) which accepted electron from succinate was measured at absorption changes of 600 nm. Activity was indicated by molar numbers of DCIP reduced per minute. Potassium cyanide, final concentration of 10 mM, was added due to necessity for prevention of leakage of reduction activity by inhibiting terminal oxidase.
With regard to the complex II (succinate-ubiquinone oxidoreductase) of the bovine heart, mitochondria prepared according to the same method described in the referential example 1 was used. Succinate dehydrogenase activity of the complex II was measured by changes of maximum absorption, which was specific to the electron acceptor (DCIP), from oxidized form of DCIP to reduced form with the addition of succinate. […] Reaction rate was measured by that the formation rate of reduced form of DCIP (amM^−1 1 cm^−1: 21) which accepted electron from succinate was measured at absorption changes of 600 nm. Activity was indicated by molar numbers of DCIP reduced per minute. Potassium cyanide, final concentration of 10 mM, was added due to necessity for prevention of leakage of reduction activity by inhibiting terminal oxidase.
With regard to the complex II of the bovine heart, mitochondria prepared according to the same method described in the referential example 1 was used. Succinate dehydrogenase activity of the complex II was measured by changes of maximum absorption, which was specific to the electron acceptor (DCIP), from oxidized form of DCIP to reduced form with the addition of succinate.

The target in another assay is T3, Ascaris suum complex II (Ascaris suum, UniProt O44074+P92506+P92507).
T3 construct: the purified complex II prepared according to the method of F. Saruta et al; from tissue; complex II purified by the method of Saruta et al. 1995
Put plainly: Inhibition of succinate dehydrogenase activity of Ascaris suum complex II (DCIP reduction). As to the method: With regard to the complex II of the Ascaris suum, the purified complex II prepared according to the method of F. Saruta et al. [Stage-specific Isoforms of Complex II (Succinate-Ubiquinone Oxidoreductase) in Mitochondria from the Parasitic Nematode, Ascaris suum: J. Biol. Chem. 270, 928-932, 1995] was used. Succinate dehydrogenase activity of the complex II was measured by changes of maximum absorption, which was specific to the electron acceptor (DCIP), from oxidized form of DCIP to reduced form with the addition of succinate.
as §1, with “Namely,” for “With regard to the complex II of the rat liver, mitochondria prepared according to the same method described in the referential example 1 was used. Succinate dehydrogenase activity of the complex II was measured by changes of maximum absorption, which was specific to the electron acceptor (DCIP), from oxidized form of DCIP to reduced form with the addition of succinate. Namely,”
(§3) With regard to the complex II of the Ascaris suum, the purified complex II prepared according to the same method of example 3 was used. Succinate dehydrogenase activity of the complex II was measured by changes of maximum absorption, which was specific to the electron acceptor (DCIP), from oxidized form of DCIP to reduced form with the addition of succinate. […] Reaction rate was measured by that the formation rate of reduced form of DCIP (amM^−1 1 cm^−1: 21) which accepted electron from succinate was measured at absorption changes of 600 nm. […]
as §3
With regard to the complex II of the Ascaris suum, the purified complex II prepared according to the same method of example 3 was used. Succinate dehydrogenase activity of the complex II was measured by changes of maximum absorption, which was specific to the electron acceptor (DCIP), from oxidized form of DCIP to reduced form with the addition of succinate. […]

[2] abbreviates: rat liver mitochondria, ubiquinone-2, DCIP, 10 mM succinate, pH 7.5, 25° C., read-out: 50% inhibitory concentration of the complex II (IC50), Rat liver.
Where [3] appears, read: bovine heart mitochondria, ubiquinone-2, DCIP, 10 mM succinate, pH 7.5, 25° C., read-out: 50% inhibitory concentration of the complex II (IC50), Bovine heart.
[4] abbreviates: purified Ascaris suum complex II, ubiquinone-2, DCIP, 10 mM succinate, pH 7.5, 25° C., read-out: 50% inhibitory concentration of the complex II (IC50), Ascaris suum.

We go through six compounds from patent US7514455B2, “Inhibitors against complex II of electron transport system” (The Kitasato Institute, priority 2002, dated 2009).

The structures appear in SMILES notation. Read-outs that look alike come from different tables or passages of the source.

T1 sequence (Q920L2 35-656 partner): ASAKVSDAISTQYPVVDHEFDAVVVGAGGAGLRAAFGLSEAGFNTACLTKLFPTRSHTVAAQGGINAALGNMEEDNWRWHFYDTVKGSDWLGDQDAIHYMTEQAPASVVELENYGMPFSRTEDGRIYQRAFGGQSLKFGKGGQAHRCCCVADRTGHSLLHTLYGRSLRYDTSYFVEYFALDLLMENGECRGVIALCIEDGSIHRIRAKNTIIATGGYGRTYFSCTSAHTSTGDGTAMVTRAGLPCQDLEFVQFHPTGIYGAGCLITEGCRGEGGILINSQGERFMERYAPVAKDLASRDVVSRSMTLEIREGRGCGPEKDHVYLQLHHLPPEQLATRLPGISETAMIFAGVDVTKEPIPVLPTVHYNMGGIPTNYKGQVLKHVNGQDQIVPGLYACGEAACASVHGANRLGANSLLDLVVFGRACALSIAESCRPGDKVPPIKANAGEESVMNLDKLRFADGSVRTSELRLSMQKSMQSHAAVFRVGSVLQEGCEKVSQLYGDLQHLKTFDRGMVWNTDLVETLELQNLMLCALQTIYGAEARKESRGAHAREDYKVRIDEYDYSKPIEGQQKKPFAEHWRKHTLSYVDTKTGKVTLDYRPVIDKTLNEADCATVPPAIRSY
T1 sequence (P21913 31-282): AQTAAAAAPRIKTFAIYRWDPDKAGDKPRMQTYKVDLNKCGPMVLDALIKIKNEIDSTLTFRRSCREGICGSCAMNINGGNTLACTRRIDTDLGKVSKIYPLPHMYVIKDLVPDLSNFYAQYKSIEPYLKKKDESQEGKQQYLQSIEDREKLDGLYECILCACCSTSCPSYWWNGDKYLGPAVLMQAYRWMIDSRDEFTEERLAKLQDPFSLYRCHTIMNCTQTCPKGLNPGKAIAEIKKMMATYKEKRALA
T1 sequence (Q641Z9 30-169 limits assumed): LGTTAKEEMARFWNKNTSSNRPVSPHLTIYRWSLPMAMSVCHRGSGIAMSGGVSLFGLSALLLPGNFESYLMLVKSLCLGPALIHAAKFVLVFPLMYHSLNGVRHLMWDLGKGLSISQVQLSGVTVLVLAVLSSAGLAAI
T1 sequence (Q6PCT8 57-159): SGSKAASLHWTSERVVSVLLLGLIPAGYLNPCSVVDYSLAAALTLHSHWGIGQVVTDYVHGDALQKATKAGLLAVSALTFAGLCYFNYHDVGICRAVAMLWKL
T3 sequence (Q33862 19-645): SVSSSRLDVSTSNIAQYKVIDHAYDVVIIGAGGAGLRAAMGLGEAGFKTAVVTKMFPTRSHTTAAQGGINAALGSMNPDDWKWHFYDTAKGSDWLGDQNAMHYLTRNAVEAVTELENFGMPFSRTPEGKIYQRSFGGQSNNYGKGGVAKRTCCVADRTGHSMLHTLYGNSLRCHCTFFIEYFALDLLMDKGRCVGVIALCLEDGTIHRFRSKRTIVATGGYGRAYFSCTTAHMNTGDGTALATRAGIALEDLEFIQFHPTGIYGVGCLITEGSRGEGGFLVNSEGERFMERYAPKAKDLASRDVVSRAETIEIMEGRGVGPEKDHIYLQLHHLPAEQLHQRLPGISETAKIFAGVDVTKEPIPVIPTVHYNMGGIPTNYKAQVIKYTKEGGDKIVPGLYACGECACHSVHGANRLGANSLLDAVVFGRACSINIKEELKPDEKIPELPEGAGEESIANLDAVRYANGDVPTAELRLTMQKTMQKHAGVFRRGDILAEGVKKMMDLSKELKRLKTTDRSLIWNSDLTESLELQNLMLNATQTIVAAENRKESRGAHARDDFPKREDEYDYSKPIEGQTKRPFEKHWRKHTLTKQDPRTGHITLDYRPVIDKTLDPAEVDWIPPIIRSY
T3 sequence (P92506 32-188): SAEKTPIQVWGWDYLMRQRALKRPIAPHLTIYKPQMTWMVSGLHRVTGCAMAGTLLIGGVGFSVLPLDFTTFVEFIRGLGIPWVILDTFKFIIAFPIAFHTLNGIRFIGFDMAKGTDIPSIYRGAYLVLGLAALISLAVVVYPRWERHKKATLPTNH
T3 sequence (O44074 22-282): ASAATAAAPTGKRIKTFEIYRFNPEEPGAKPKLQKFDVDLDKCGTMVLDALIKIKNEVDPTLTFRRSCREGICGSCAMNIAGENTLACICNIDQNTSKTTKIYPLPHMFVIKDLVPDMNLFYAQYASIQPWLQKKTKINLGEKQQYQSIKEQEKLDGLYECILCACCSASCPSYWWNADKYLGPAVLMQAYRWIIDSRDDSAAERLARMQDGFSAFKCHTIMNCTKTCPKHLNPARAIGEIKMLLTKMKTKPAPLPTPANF
T3 sequence (P92507 26-156): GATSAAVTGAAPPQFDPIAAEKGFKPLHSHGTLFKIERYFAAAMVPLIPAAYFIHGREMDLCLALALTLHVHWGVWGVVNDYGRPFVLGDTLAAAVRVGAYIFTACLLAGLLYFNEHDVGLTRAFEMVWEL
T2 sequence (P31039 44-665 partner): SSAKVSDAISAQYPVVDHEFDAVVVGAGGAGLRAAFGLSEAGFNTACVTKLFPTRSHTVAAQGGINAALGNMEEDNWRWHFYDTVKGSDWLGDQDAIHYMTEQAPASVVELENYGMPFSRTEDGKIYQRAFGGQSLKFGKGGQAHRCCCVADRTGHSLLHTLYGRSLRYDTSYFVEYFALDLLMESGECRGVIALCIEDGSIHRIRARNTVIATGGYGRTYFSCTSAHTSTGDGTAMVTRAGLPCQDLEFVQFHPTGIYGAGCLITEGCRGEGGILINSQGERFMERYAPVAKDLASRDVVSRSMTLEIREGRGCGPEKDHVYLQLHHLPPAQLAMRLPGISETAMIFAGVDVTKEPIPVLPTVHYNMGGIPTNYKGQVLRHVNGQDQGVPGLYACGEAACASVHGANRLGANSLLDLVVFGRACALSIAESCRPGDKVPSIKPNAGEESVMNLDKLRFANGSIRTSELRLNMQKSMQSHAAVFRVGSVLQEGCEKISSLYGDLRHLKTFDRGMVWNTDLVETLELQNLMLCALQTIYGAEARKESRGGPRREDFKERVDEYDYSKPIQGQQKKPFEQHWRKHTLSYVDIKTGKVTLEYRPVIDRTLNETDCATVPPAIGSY
T2 sequence (Q3T189 29-280): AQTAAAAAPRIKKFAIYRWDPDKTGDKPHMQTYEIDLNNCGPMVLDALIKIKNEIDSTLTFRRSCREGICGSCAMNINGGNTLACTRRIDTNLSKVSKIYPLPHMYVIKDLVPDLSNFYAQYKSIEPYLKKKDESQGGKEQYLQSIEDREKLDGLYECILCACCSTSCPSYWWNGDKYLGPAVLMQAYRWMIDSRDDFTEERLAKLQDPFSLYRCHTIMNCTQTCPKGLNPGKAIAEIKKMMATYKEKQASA
T2 sequence (P35720 30-169): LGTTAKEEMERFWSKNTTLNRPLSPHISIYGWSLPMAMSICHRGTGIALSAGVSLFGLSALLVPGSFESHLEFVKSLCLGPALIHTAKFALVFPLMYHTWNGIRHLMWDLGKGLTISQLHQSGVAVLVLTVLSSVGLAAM
T2 sequence (Q95123 56-158): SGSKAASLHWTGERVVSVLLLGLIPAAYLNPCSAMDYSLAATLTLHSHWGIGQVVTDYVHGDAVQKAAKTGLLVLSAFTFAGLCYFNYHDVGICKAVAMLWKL

Regarding `COc1nc(O)c(C(=O)C(C)CC(C)C(C)Cl)c(O)c1OC` (centres unmarked) [Atpenin A4, atpenin A4], the IC50 at rat liver complex II (setting [2]) came out at 24 nM; in assay [1] (setting [3]) it was 11 nM; at Ascaris suum complex II (setting [4]), 220 nM.
On the same counts, the results for `C/C=C/CC(C)C(=O)c1c(O)c(OC)c(OC)[nH]c1=O` (centres unmarked) [Harzianopyridone, harzianopyridone] are 200 nM, 17 nM and 2000 nM.
Take `CC1=C(C(=O)Nc2ccccc2)SCCO1` [Carboxin, carboxin, reference compound]: the IC50 in assay [1] (setting [3]) came to 1100 nM.
In the case of `CCC(C)CC(C)C(=O)c1c(O)nc(OC)c(OC)c1O` (centres unmarked) [Atpenin B, atpenin B], the IC50 was determined as 20 nM on rat liver complex II (setting [2]), 10 nM in assay [1] (setting [3]) and 50 nM at Ascaris suum complex II (setting [4]).
Turning to `COc1[nH]c(=O)c(C(=O)C(C)CC(C)C(Cl)CCl)c(O)c1OC` (centres unmarked) [Atpenin A5, atpenin A5], the IC50 on rat liver complex II came out at 3.7 nM; in assay [1], 3.6 nM; against Ascaris suum complex II, 32 nM.
`O=C(CC(=O)C(F)(F)F)c1cccs1` [Thenoyltrifluoro Aceton, thenoyltrifluoroacetone, reference compound]: in assay [1] (setting [3]), the IC50 is 5800 nM.
